Values joined by “and” are separate entries in the source; they are usually repeats but may differ in a detail not shown here. Identical values can stand only once.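 Cultured in 96-well plates, cells were exposed to test compound for 48 hours across five concentrations. The concentration for 50% growth inhibition is given as GI50. TGI denotes the concentration required for complete inhibition of growth.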
Experiments:
Assay in all cases: NCI-60 cell line screen, 48 h
SNB-19 CNS = system: SNB-19 CNS
EKVX NSCLC = system: EKVX NSCLC
RXF 393 renal = system: RXF 393 renal
786-0 renal = system: 786-0 renal
SK-MEL-28 melanoma = system: SK-MEL-28 melanoma
NCI-H23 lung = system: NCI-H23 lung
NCI/ADR-RES ovarian = system: NCI/ADR-RES ovarian
PC-3 prostate = system: PC-3 prostate
MDA-N = system: MDA-N
NCI-H460 lung = system: NCI-H460 lung

| Compound | GI50 (SNB-19 CNS) [µM] | TGI (SNB-19 CNS) | GI50 (EKVX NSCLC) [µM] | TGI (EKVX NSCLC) | GI50 (RXF 393 renal) [µM] | TGI (RXF 393 renal) | TGI (786-0 renal) [µM] | GI50 (SK-MEL-28 melanoma) [µM] | TGI (SK-MEL-28 melanoma) | GI50 (NCI-H23 lung) [µM] | TGI (NCI-H23 lung) | GI50 (NCI/ADR-RES ovarian) [µM] | TGI (NCI/ADR-RES ovarian) | TGI (PC-3 prostate) [µM] | TGI (MDA-N) [µM] | GI50 (NCI-H460 lung) | TGI (NCI-H460 lung) |
| --- | --- | --- | --- | --- | --- | --- | --- | --- | --- | --- | --- | --- | --- | --- | --- | --- | --- |
| CC1=C2C(=CO[C@H](C)[C@H]2C)C(=O)C(C(=O)O)=C1O | 27.9 | 55.6 µM and > 67.7 µM | 28.9 | 83.6 µM and 63.2 µM | 21.9 | 35.8 µM and 48.4 µM | 62.7 | 23.9 | 93.5 µM and 54.9 µM | 24.1 | 71.4 µM and 58.4 µM | 26.9 | 79.4 µM and 152 µM | > 85.3 | 72.2 | 30.1 µM and 73 µM | > 90.1 µM and 149 µM |
| CC(C)(C)[Si](C)(C)OCc1cccc(OCCOc2cccc(CO[Si](C)(C)C(C)(C)C)c2[N+](=O)[O-])c1[N+](=O)[O-] |  | > 100 µM |  | > 100 µM |  | > 100 µM | > 100 |  | > 100 µM |  | > 100 µM |  | > 100 µM | > 100 | > 100 |  | > 100 µM |
| O=[N+]([O-])c1cccc(N=Nc2c(O)c(S(=O)(=O)O)cc3cc(S(=O)(=O)O)ccc23)c1 |  | > 100 µM |  | > 100 µM |  | > 100 µM | > 100 |  | > 100 µM |  | > 100 µM |  | > 100 µM | > 100 | > 100 |  | > 100 µM |
| NN=C(CC(O)(C(F)(F)Cl)C(F)(F)Cl)CC(O)(C(F)(F)Cl)C(F)(F)Cl |  | > 10 µM |  | > 10 µM |  | > 10 µM | > 10 |  | > 10 µM |  | > 10 µM |  | > 10 µM | > 10 | > 10 |  | > 10 µM |
| c1ccc(/C(=N/Nc2ccncn2)c2ccccn2)cc1 |  | > 100 µM |  | 50.3 µM |  | > 100 µM | > 100 |  | > 100 µM |  | 46.5 µM |  | 49 µM | > 100 | > 100 |  | > 100 µM |
| CCc1cc2c(c3c1CCCC3=O)CC1(Cc3ccc(C(=O)OC)cc3C1)C2 (configuration not stated) |  | > 100 µM |  | > 100 µM |  | > 100 µM | > 100 |  | > 100 µM |  | > 100 µM |  | > 100 µM | > 100 | > 100 |  | > 100 µM |
| CN(C)/N=N/c1nc2c(c(=O)n(C)c(=O)n2C)n1CC(O)CO (configuration not stated) |  | > 100 µM |  | > 100 µM |  | > 100 µM | > 100 |  | > 100 µM |  | > 100 µM |  | > 100 µM | > 100 | > 100 |  | > 100 µM |
| O=C(N/N=C/C=C/c1ccccc1)c1ccccc1Nc1ccccc1C(=O)N/N=C/C=C/c1ccccc1 |  | > 100 µM |  | > 100 µM |  | > 100 µM | > 100 |  | > 100 µM |  | > 100 µM |  | > 100 µM | > 100 | > 100 |  | > 100 µM |
| CC(=O)Nc1ccc(OC/C(N)=N/NC(=O)c2ccncc2)cc1 |  | > 100 µM |  | > 100 µM |  | > 100 µM | > 100 |  | > 100 µM |  | > 100 µM |  | > 100 µM | > 100 | > 100 |  | > 100 µM |

From PubChem BioAssay (NCI)
